How the values were obtained:
[1] = biological target: T1, EphA4 receptor tyrosine kinase (Homo sapiens, UniProt P54764); assay: inhibitory test of EphA4 in the kinase panel; format: biochemical
T1 construct: purchased Proqinase
Procedure: (§1) The kinase activity of the compound was measured by a radiometric kinase assay (^33PanQinase® Activity Assay) carried out by Proqinase (www.proqinase.com).
(§2) The assays were carried out in 96-well FlashPlates™ by PerkinElmer (Boston, Mass., USA) with a reaction volume of 50 μl. The reaction cocktail was pipetted in 4 steps: (1) 20 μl buffer, (2) 5 μl ATP solution (in H2O), (3) 5 μl compound (in 10% DMSO) and (4) 20 μl enzyme/substrate mixture. Lastly, the cocktail contained 70 mM HEPES-NaOH pH 7.5, 3 mM MgCl2, 3 mM MnCl2, 3 μM sodium orthovanadate, 1.2 mM DTT, 50 μg/ml PEG20000, ATP (1 μM for MNK1 and 0.3 μM for MNK2), [γ-^33P]-ATP (approx. […] per well), protein kinase (variable amounts depending on the batch) and substrate (2 μg/50 μl).
(§3) Reaction cocktails were incubated at 30° C. for 60 minutes. The reaction was stopped with 50 μl of 2% H3PO4 (v/v), the plates were sucked, they were washed twice with 200 μl of 0.9% NaCl (w/v) and the incorporation of ^33Pi (MicroBeta microplate scintillation counter, Wallac) was determined. […]
(§4) The residual activity (in %) for each well of a particular plate was calculated using the following formula (wherein high control is the kinase activity in absence of an inhibitor and low control is the radioactivity value of the substrate in absence of a kinase).
(§5) To study selectivity, residual activity was measured at 1 μM from a 320-kinase panel.

[2] = test system: 320-kinase panel; assay: selectivity on a 320-kinase panel; format: biochemical; settings: 1 μM
Procedure: as §1, §2, §3, §4, §5

[3] = test system: eIF4E phosphorylation in leukaemia cells (MV4-11); assay: titration of eIF4E phosphorylation in MV4-11 cells; format: cell-based
Procedure: MV4-11 cells were grown in IMDM medium (Iscove's Modified Dulbecco's Medium, Gibco) supplemented with 10% FBS, 1% L-glutamine, 100 U/ml penicillin and 100 μg/ml streptomycin.
(§6) Inhibition of eIF4E phosphorylation was quantified by Western Blot. Cells were seeded in 60 mm plates (700,000 cells for 24 h, 500,000 cells for 48 h and 300,000 cells for 72 h).
(§7) After 24 h, the treatments were added. The stocks of compounds were prepared in […] at a concentration 200 times more concentrated than the treatment concentration. Thus, in all cases, the final concentration of DMSO in the medium was 0.5%.
(§8) After incubation, proteins were removed and Western Blot was performed. On ice, the plates were washed with PBS and the cells were lysed with 60 μl lysis buffer (50 mM Tris, 200 mM NaCl, 5 mM EDTA, 0.1% Triton 100×, pH 7.5 supplemented with protease inhibitors (EDTA-free Protease Inhibitor Cocktail Set III, Calbiochem) and phosphatase inhibitors (Phosphatase Inhibitor Cocktail Set II, Calbiochem)). The samples were centrifuged at 15,000 g and the supernatant was quantified by the Bradford method. The samples were all diluted to the same concentration with a lysis buffer and loading buffer (Laemmli buffer) and denatured for 5 minutes at 95° C. […] Selectivity against MNK was analysed with ERK, p-ERK, MNK1, p-MNK1, 4EBP1 and p-4EBP1 antibodies. […]

[4] = test system: eIF4E phosphorylation in breast cancer cells (MDA-MB-468); assay: titration of eIF4E phosphorylation in MDA-MB-468 cells; format: cell-based
Procedure: (§9) Commercially available MDA-MB-231, MDA-MB-468, MCF7 and A375M, IMR90 (IMR-90 (ATCC® CCL-186TH) cells were grown at 37° C. and 5% CO2 in DMEM medium (Dulbecco's Modified Eagle Medium, 4.5 g/I glucose; 30 mg/I L-Glutamine (Gibco)) supplemented with 10% foetal bovine serum, 100 U/ml penicillin and 100 μg/ml streptomycin.
as §6, §7
as §8, with “method.” for “method. The samples were all diluted to the same concentration with a lysis buffer and loading buffer (Laemmli buffer) and denatured for 5 minutes at 95° C.”

[5] = test system: MCF7 cells; assay: cell growth of MCF7 cells with tamoxifen (crystal violet); format: cell-based; settings: combination with tamoxifen
Procedure: as §9
Cell growth in the presence of EB1, tamoxifen or the combination of both inhibitors was measured by crystal violet. Data were normalized to the vehicle control.

[6] = test system: 22Rv1 castration resistant prostate cancer cells; assay: cell viability of 22Rv1 cells, EB1 with Enzalutamide; format: cell-based; settings: 22Rv1, co-treatment with Enzalutamide, 72 h
Procedure: Cell viability under combined inhibition of AR and eIF4E phosphorylation was assayed. […] (B) Number of viable cells after 72 h treatment with pairwise combinations reported as percentage relative to control. (E) Cell viability data presented as a grid displaying the percentage of affected cells by each pairwise combination of drug doses. (C) Drug combinations with the strongest inhibition in cell viability (bars; mean±SEM; n=3. *p<0.05, **p<0.01 two-tailed Student's test). (F) Combination index (CI) presented as a grid for each pairwise combination of drug doses calculated by the Chou-Talalay method at non-constant ratio. (D and I) Fraction affected vs. combination index (CI) plots.

[7] = test system: eIF4E phosphorylation, AR and AR-V7 in 22Rv1 cells; assay: western blot analysis in 22Rv1 cells; format: cell-based; settings: for levels of AR, AR-V7 and eIF4E phosphorylation: 22Rv1, 72 h
[8] = test system: 22Rv1 cells; assay: apoptosis assay of 22Rv1 cells (Propidium Iodide staining); format: cell-based; settings: 22Rv1, 72 h, dual treatment EB1 and Enzalutamide
Procedure: Dual inhibition of AR and eIF4E phosphorylation induces cell death via apoptosis. […] With this aim, 22Rv1 (A) cells were treated either with vehicle (DMSO), enzalutamide, EB1 or a combination of both with the indicated concentrations for 72 h. Whole cell lysates were then prepared and subjected to western blot analysis with the indicated antibodies. […] Increase in CI-PARP levels indicated apoptotic induction under the combinatory treatment. (B) Apoptosis assays of 22Rv1 cell line after treatment with the indicated concentrations of Enzalutamide, EB1 and the combination of both for 72 h, quantified by analysis of fragmented/condensed chromatin after Propidium Iodide staining. […] Representative Propidium Iodide and Hoechst staining images of 22Rv1 cell line were obtained, although data are not shown. Data are mean of two technical replicates from one experiment ±SEM ***p<0.001 two-tailed Student's test

T1 sequence (P54764 20-986): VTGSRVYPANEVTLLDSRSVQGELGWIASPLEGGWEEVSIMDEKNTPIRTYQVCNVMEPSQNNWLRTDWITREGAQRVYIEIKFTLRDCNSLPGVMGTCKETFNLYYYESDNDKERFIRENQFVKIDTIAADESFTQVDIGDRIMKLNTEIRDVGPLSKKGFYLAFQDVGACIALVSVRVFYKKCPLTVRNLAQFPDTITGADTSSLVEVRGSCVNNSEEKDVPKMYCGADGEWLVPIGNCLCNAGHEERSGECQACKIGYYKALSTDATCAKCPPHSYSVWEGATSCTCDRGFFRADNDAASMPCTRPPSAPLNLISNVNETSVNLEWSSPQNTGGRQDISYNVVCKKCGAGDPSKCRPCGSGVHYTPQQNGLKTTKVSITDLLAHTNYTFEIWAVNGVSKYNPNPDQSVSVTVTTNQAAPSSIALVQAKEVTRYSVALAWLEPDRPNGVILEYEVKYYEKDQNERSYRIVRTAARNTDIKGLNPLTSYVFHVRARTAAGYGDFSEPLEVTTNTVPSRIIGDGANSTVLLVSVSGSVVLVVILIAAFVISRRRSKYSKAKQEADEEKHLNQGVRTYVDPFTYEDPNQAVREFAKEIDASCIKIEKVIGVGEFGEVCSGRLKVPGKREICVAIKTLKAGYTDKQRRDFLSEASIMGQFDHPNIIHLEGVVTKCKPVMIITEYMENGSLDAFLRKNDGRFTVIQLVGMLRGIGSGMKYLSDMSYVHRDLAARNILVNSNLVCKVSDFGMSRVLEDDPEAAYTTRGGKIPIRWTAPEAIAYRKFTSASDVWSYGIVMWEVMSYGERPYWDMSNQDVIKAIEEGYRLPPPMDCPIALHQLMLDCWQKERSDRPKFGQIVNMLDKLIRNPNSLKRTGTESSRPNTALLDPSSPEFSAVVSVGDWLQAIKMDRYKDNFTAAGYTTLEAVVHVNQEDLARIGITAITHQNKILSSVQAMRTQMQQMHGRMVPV

Structure (SMILES): Nc1n[nH]c2nc(-c3ccccc3)cc(-c3ccccc3)c12 [EB1, 4,6-diphenyl-1H-pyrazolo[3,4-b]pyridin-3-amine]
- inhibition at 1 µM [1]: 10%
- number of other kinases affected in an equivalent manner [2]: 16
- activity as MNK inhibitor (eIF4E phosphorylation) [3]: active
- activity as MNK inhibitor (eIF4E phosphorylation) [4]: active
- sensitivity of MCF7 cells to tamoxifen [5]: increased sensitivity to tamoxifen
- effect of co-treatment on cell viability [6]: synergistic effect
- inhibition of eIF4E phosphorylation ([7]; 22Rv1, 24 h EB1 treatment): Dose dependent inhibition
- levels of AR, AR-V7 and eIF4E phosphorylation ([7]; EB1 alone): reduction of AR, its splice variant AR-V7 and eIF4E phosphorylation
- levels of AR, AR-V7 and eIF4E phosphorylation ([7]; combination of EB1 and enzalutamide): more pronounced
- apoptotic cell population [8]: Remarcable increase in apoptotic cell population

Reference: patent US20220257571A1, “INHIBITOR OF MAP KINASE INTERACTING SERINE/THREONINE KINASE 1 (MNK1) AND MAP KINASE INTERACTING SERINE/THREONINE KINASE 2 (MNK2), CANCER THERAPY AND THERAPEUTIC COMBINATIONS” (FUNPACIÓ HOSPITAL UNIVERSITARI VALL D'HEBRON - INSTITUT DE …, priority 2019, published 2022)
